Results taken from article PMC11984392, “EphA2-targeted alpha-particle theranostics for enhancing PDAC treatment” (Theranostics, 2025).
Read-outs that look alike come from different tables or passages of the source. *1 amine or outer side, *2 acyl side, *3 side chain or, on linkers, in order; H or OH if unused. Where a SMILES comes first, the peptide text is derived from it. Bridges are numbered along the chain shown (N, C = ends). [ ]: non-standard residue; d: D form. The star is where a group is joined. TATA = O=C(CC[*:1])N1CN(C(=O)CC[*:2])CN(C(=O)CC[*:3])C1; NOTA = O=C(O)CN1CCN(CC(=O)O)CCN(CC(=O)*)CC1; Hyp = O=C(O)[C@@H]1C[C@@H](O)CN1; hArg = N=C(N)NCCCC[C@H](N)C(=O)O; PEG2 = NCCOCCOCCC(=O)O; Sar = CNCC(=O)O

Assay: Ex vivo biodistribution
Format: in vivo, NSG mice
Conditions: both sexes, NSG, mouse, total radioactivity, 60 min p.i., mean ± SEM (n = 4 or 5)
Protocol: Animal studies were performed under Johns Hopkins University Animal Care and Use Committee (ACUC)-approved protocol (Principal investigator: Sridhar Nimmagadda, Ph.D. and Protocol number M021M175). Male and Female NSG mice (5-6 weeks old) were purchased from JHU immunocompromised core and used to establish xenografts by administering cells subcutaneously (top right flank, unless otherwise noted) to form various tumor models within 3-4 weeks. Following cell numbers were used: Panc1, AsPC1, BxPC3 (1 M), Hs766T and SU8686 (2 M), CFPAC and Panc1005 (5 M). Imaging or biodistribution studies (n = 3-5) were conducted on mice with tumor volumes of 100-200 mm^3. The Panc1 orthotopic tumor model was established by surgically implanting a 3-5 mm^3 section of Panc1 tumor xenograft directly onto the pancreas. The implanted tumors were allowed to grow and were ready for imaging after 10 days of implantation.
Mice with 100-200 mm^3 tumor volume were used for ex vivo biodistribution studies. For radiotracer pharmacokinetics and dosimetry studies, mice with Panc1 tumor xenograft received ~80 µCi (2.96 MBq) [^68Ga]AJ201 and were sacrificed at pre-determined time points (5, 30, 60, 90 and 120 min). All other mice were injected with ~50 µCi (1.85 MBq; 0.2 to 0.5 nmol) Ga-68 labeled radiotracer and were sacrificed at 60 min. The selected tissues were collected, weighed, counted, and their %ID/g values calculated for biodistribution analysis. For pharmacokinetics and dosimetry studies, selected tissues included blood, muscle, tumor, thymus, heart, lung, liver, pancreas, stomach, small intestine, large intestine, spleen, adrenals, kidney, bladder, femur, brain and tumor xenografts. For other studies, selected tissues were blood, muscle, tumor, heart, lung, liver, pancreas, small intestine, spleen, kidney.

`CC(C)C[C@@H]1NC(=O)[C@@H]2CSCCC(=O)N3CN(CN(C3)C(=O)CCSC[C@H](NC(=O)[C@H](CC(=O)O)NC(=O)[C@H](CCCCNC(=N)N)NC(=O)[C@H](C)NC(=O)CNC(=O)CN(C)C(=O)CN(C)C(=O)CN(C)C(=O)[C@H](CCCNC(=N)N)NC(=O)CNC(=O)CCOCCOCCNC(=O)CN3CCN(CC(=O)O)CCN(CC(=O)O)CC3)C(=O)N3C[C@H](O)C[C@H]3C(=O)N[C@@H](CC(C)C)C(=O)N[C@@H](C(C)C)C(=O)N[C@@H](CC(N)=O)C(=O)N3CCC[C@H]3C(=O)N[C@@H](CC(C)C)C(=O)N2)C(=O)CCSC[C@@H](C(N)=O)NC(=O)[C@H](CCCCNC(=N)N)NC(=O)[C@H](Cc2c[nH]c3ccccc23)NC(=O)[C@@H](CC(=O)O)NC(=O)[C@@H]2CCCN2C(=O)[C@H](Cc2c[nH]cn2)NC1=O` [[^68Ga]AJ201, metal not drawn] ({NOTA-PEG2}-GR[Sar][Sar][Sar]GA[hArg]DC[Hyp]LVNPLCLHP[dD]W[hArg]C-NH2; linker 10-17-24 via TATA) showed a tissue uptake at 1 h (blood, AsPC1 xenograft, read-out: Blood uptake) of 3.32 ± 0.24 %ID/g, a tissue uptake at 1 h (blood, BxPC3 xenograft, read-out: Blood uptake) of 0.58 ± 0.04 %ID/g and a tissue uptake at 1 h (blood, CFPAC xenograft, read-out: Blood uptake) of 0.69 ± 0.21 %ID/g. For the same compound, the tissue uptake at 1 h (blood, Hs766T xenograft, read-out: Blood uptake) was 1.39 ± 0.3 %ID/g, the tissue uptake at 1 h (blood, Panc1005 xenograft, read-out: Blood uptake) was 0.44 ± 0.05 %ID/g and the tissue uptake at 1 h (blood, Su8686 xenograft, read-out: Blood uptake) was 0.71 ± 0.18 %ID/g. For the same compound, the tissue uptake at 1 h (heart, AsPC1 xenograft, read-out: Heart uptake) was 1.25 ± 0.1 %ID/g, the tissue uptake at 1 h (heart, CFPAC xenograft, read-out: Heart uptake) was 0.34 ± 0.08 %ID/g and the tissue uptake at 1 h (heart, Hs766T xenograft, read-out: Heart uptake) was 0.9 ± 0.25 %ID/g. It also gave a tissue uptake at 1 h (heart, Panc1005 xenograft, read-out: Heart uptake) of 0.2 ± 0.02 %ID/g, a tissue uptake at 1 h (heart, Su8686 xenograft, read-out: Heart uptake) of 0.25 ± 0.06 %ID/g and a tissue uptake at 1 h (kidney, AsPC1 xenograft, read-out: Kidney uptake) of 59.6 ± 2.86 %ID/g. The tissue uptake at 1 h (kidney, BxPC3 xenograft, read-out: Kidney uptake) was 59 ± 7.17 %ID/g, the tissue uptake at 1 h (kidney, CFPAC xenograft, read-out: Kidney uptake) was 69.1 ± 4.56 %ID/g and the tissue uptake at 1 h (kidney, Hs766T xenograft, read-out: Kidney uptake) was 52.6 ± 4.07 %ID/g. The tissue uptake at 1 h (kidney, Panc1005 xenograft, read-out: Kidney uptake) was 67 ± 6.9 %ID/g, the tissue uptake at 1 h (kidney, Su8686 xenograft, read-out: Kidney uptake) was 37.7 ± 2.64 %ID/g and the tissue uptake at 1 h (liver, AsPC1 xenograft, read-out: Liver uptake) was 1.59 ± 0.07 %ID/g. It also gave a tissue uptake at 1 h (liver, BxPC3 xenograft, read-out: Liver uptake) of 0.42 ± 0.02 %ID/g, a tissue uptake at 1 h (liver, CFPAC xenograft, read-out: Liver uptake) of 0.43 ± 0.09 %ID/g and a tissue uptake at 1 h (liver, Hs766T xenograft, read-out: Liver uptake) of 0.89 ± 0.21 %ID/g. The tissue uptake at 1 h (liver, Panc1005 xenograft, read-out: Liver uptake) was 0.29 ± 0.03 %ID/g, the tissue uptake at 1 h (liver, Su8686 xenograft, read-out: Liver uptake) was 0.34 ± 0.06 %ID/g and the tissue uptake at 1 h (lung, AsPC1 xenograft, read-out: Lung uptake) was 2.78 ± 0.13 %ID/g. It also gave a tissue uptake at 1 h (lung, BxPC3 xenograft, read-out: Lung uptake) of 0.7 ± 0.04 %ID/g, a tissue uptake at 1 h (lung, CFPAC xenograft, read-out: Lung uptake) of 0.89 ± 0.2 %ID/g and a tissue uptake at 1 h (lung, Hs766T xenograft, read-out: Lung uptake) of 1.71 ± 0.55 %ID/g. For the same compound, the tissue uptake at 1 h (lung, Panc1005 xenograft, read-out: Lung uptake) was 0.54 ± 0.05 %ID/g, the tissue uptake at 1 h (lung, Su8686 xenograft, read-out: Lung uptake) was 0.76 ± 0.16 %ID/g and the tissue uptake at 1 h (muscle, AsPC1 xenograft, read-out: Muscle uptake) was 0.41 ± 0.03 %ID/g. For the same compound, the tissue uptake at 1 h (muscle, BxPC3 xenograft, read-out: Muscle uptake) was 0.18 ± 0.01 %ID/g, the tissue uptake at 1 h (muscle, Hs766T xenograft, read-out: Muscle uptake) was 0.46 ± 0.13 %ID/g and the tissue uptake at 1 h (muscle, Panc1005 xenograft, read-out: Muscle uptake) was 0.11 ± 0.01 %ID/g. It also gave a tissue uptake at 1 h (muscle, Su8686 xenograft, read-out: Muscle uptake) of 0.16 ± 0.04 %ID/g, a tissue uptake at 1 h (pancreas, AsPC1 xenograft, read-out: Pancreas uptake) of 0.65 ± 0.04 %ID/g and a tissue uptake at 1 h (pancreas, BxPC3 xenograft, read-out: Pancreas uptake) of 0.25 ± 0.02 %ID/g. It also gave a tissue uptake at 1 h (pancreas, CFPAC xenograft, read-out: Pancreas uptake) of 0.32 ± 0.07 %ID/g, a tissue uptake at 1 h (pancreas, Hs766T xenograft, read-out: Pancreas uptake) of 0.61 ± 0.22 %ID/g and a tissue uptake at 1 h (pancreas, Panc1005 xenograft, read-out: Pancreas uptake) of 0.21 ± 0.03 %ID/g. The tissue uptake at 1 h (pancreas, Su8686 xenograft, read-out: Pancreas uptake) was 0.22 ± 0.05 %ID/g, the tissue uptake at 1 h (small intestine, AsPC1 xenograft, read-out: Small intestine uptake) was 1.12 ± 0.08 %ID/g and the tissue uptake at 1 h (small intestine, BxPC3 xenograft, read-out: Small intestine uptake) was 0.32 ± 0.02 %ID/g. The tissue uptake at 1 h (small intestine, Hs766T xenograft, read-out: Small intestine uptake) was 0.62 ± 0.02 %ID/g, the tissue uptake at 1 h (small intestine, Panc1005 xenograft, read-out: Small intestine uptake) was 0.25 ± 0.03 %ID/g and the tissue uptake at 1 h (small intestine, Su8686 xenograft, read-out: Small intestine uptake) was 0.29 ± 0.05 %ID/g. It also gave a tissue uptake at 1 h (spleen, AsPC1 xenograft, read-out: Spleen uptake) of 1.61 ± 0.11 %ID/g, a tissue uptake at 1 h (spleen, BxPC3 xenograft, read-out: Spleen uptake) of 0.64 ± 0.05 %ID/g and a tissue uptake at 1 h (spleen, CFPAC xenograft, read-out: Spleen uptake) of 0.87 ± 0.15 %ID/g. For the same compound, the tissue uptake at 1 h (spleen, Hs766T xenograft, read-out: Spleen uptake) was 2.75 ± 0.65 %ID/g, the tissue uptake at 1 h (spleen, Panc1005 xenograft, read-out: Spleen uptake) was 0.52 ± 0.05 %ID/g and the tissue uptake at 1 h (spleen, Su8686 xenograft, read-out: Spleen uptake) was 0.6 ± 0.16 %ID/g. For the same compound, the tissue uptake at 1 h (tumor, 50 uCi, CFPAC xenograft, read-out: Tumor uptake) was 2.4 ± 0.2 %ID/g, the tissue uptake at 1 h (tumor, AsPC1 xenograft, read-out: Tumor uptake) was 4.01 ± 0.46 %ID/g and the tissue uptake at 1 h (tumor, BxPC3 xenograft, read-out: Tumor uptake) was 2.72 ± 0.37 %ID/g. It also gave a tissue uptake at 1 h (tumor, Hs766T xenograft, read-out: Tumor uptake) of 7.97 ± 2.83 %ID/g, a tissue uptake at 1 h (tumor, Panc1005 xenograft, read-out: Tumor uptake) of 5.31 ± 0.9 %ID/g and a tissue uptake at 1 h (tumor, Su8686 xenograft, read-out: Tumor uptake) of 7.66 ± 1 %ID/g. The tissue to tissue ratio at 1 h (tumor/blood, AsPC1 xenograft, read-out: Tumor/blood ratio) was 1.2 ± 0.06, the tissue to tissue ratio at 1 h (tumor/blood, BxPC3 xenograft, read-out: Tumor/blood ratio) was 4.86 ± 0.92 and the tissue to tissue ratio at 1 h (tumor/blood, CFPAC xenograft, read-out: Tumor/blood ratio) was 4.53 ± 0.9. For the same compound, the tissue to tissue ratio at 1 h (tumor/blood, Hs766T xenograft, read-out: Tumor/blood ratio) was 5.47 ± 0.81, the tissue to tissue ratio at 1 h (tumor/blood, Panc1005 xenograft, read-out: Tumor/blood ratio) was 12.9 ± 2.38 and the tissue to tissue ratio at 1 h (tumor/blood, Su8686 xenograft, read-out: Tumor/blood ratio) was 14.2 ± 3.89. For the same compound, the tissue to tissue ratio at 1 h (tumor/muscle, AsPC1 xenograft, read-out: Tumor/Muscle ratio) was 9.95 ± 1.49, the tissue to tissue ratio at 1 h (tumor/muscle, BxPC3 xenograft, read-out: Tumor/Muscle ratio) was 15.2 ± 2.14 and the tissue to tissue ratio at 1 h (tumor/muscle, CFPAC xenograft, read-out: Tumor/Muscle ratio) was 12.1 ± 1.45. The tissue to tissue ratio at 1 h (tumor/muscle, Hs766T xenograft, read-out: Tumor/Muscle ratio) was 17.2 ± 2.33, the tissue to tissue ratio at 1 h (tumor/muscle, Panc1005 xenograft, read-out: Tumor/Muscle ratio) was 50.1 ± 10.2 and the tissue to tissue ratio at 1 h (tumor/muscle, Su8686 xenograft, read-out: Tumor/Muscle ratio) was 58 ± 11.5. For the same compound, the tissue to tissue ratio at 1 h (tumor/pancreas, AsPC1 xenograft, read-out: Tumor/Pancreas ratio) was 6.23 ± 0.65, the tissue to tissue ratio at 1 h (tumor/pancreas, BxPC3 xenograft, read-out: Tumor/Pancreas ratio) was 11 ± 1.71 and the tissue to tissue ratio at 1 h (tumor/pancreas, CFPAC xenograft, read-out: Tumor/Pancreas ratio) was 8.68 ± 1.24. The tissue to tissue ratio at 1 h (tumor/pancreas, Hs766T xenograft, read-out: Tumor/Pancreas ratio) was 13.8 ± 2.3, the tissue to tissue ratio at 1 h (tumor/pancreas, Panc1005 xenograft, read-out: Tumor/Pancreas ratio) was 26.9 ± 5.62 and the tissue to tissue ratio at 1 h (tumor/pancreas, Su8686 xenograft, read-out: Tumor/Pancreas ratio) was 39.8 ± 7.21.
